Laboratory results from US20150343016A1, “CHEMICAL ENTITIES AND THERAPEUTIC USES THEREOF” (The Regents of the University of Colorado, a body corporate, priority 2010, published 2015).

System: HN31 Head and Neck Cancer cell line
Experiment: MTT assay, Bouvardin with ionizing radiation, HN31 (treated on the same day)
Type: cell-based, human
Conditions: HN31 cells
Procedure: “Combination Index” computation. Combination Indices were calculated using CalcuSyn software (Biosoft), which uses the method of Chou and Talalay. This method first computes drug-induced effect using the Hill Equation: where E is the measured effect; C is the drug concentration; Emax is the full range of drug effect, usually at or near 100%; IC50 is the drug concentration producing the median effect of 50%; and n is the curve shape parameter describing the steepness of the concentration-effect relationship. The Chou and Talalay method then linearizes the Hill Equation by logarithmic transformation as: where fu is the fraction of cells left unaffected after drug exposure, fa is the fraction of cells affected by the exposure, C is the drug concentration used, Cm is the concentration to achieve the median effect, and n is the curve shape parameter. Cm and n are equivalent to IC50 and n, respectively, in the Hill Equation. The values of n (obtained from the slope), nlog(Cm) (obtained from the absolute value of the intercept), and, therefore, Cm are obtained by plotting log(fu−1−1) versus log(C). These numbers are then used to compute the Combination Index (CI) according to the formula: CI=(D)1/(Dx)1+(D)2/(Dx)2 (26). (Dx)1 and (Dx)2 are the doses required to achieve a given effect level for each treatment, i.e. a specified value of Fraction Affected or Fa. (D)1 and (D)2 are the doses of each treatment in a given combination which gives the same Fa.
The growth inhibitory effects of Bouvardin with ionizing radiation (IR) were evaluated using a modified tetrazolium salt (MTT) assay. In the MTT assay, 1,000 to 2,000 viable cells were plated in 100 uL of growth medium in 96-well plates (Corning, Ithaca, N.Y.). Following an overnight incubation, drug was added in varying concentrations and the plates were irradiated on the same day (co-treatment) or 24 hr later (pre-treatment) and incubated for 6 to 7 days. The tetrazolium salt was added at a concentration of 0.4 mg/mL to each well following the 6- to 7-day treatment. The plates were incubated with the salt for 4 hours at 37° C. At 4 hours, the medium was aspirated off, leaving the dark blue formazan product at the bottom of the wells. The reduced MTT product was solubilized by adding […] of 0.2 N HCl in 75% isopropanol, 23% MilliQ water to each well. Thorough mixing was done using a Titertek multichannel pipetman. The absorbency of each well was measured using an automated plate reader (Molecular Devices, Sunnyvale, Calif.). All experiments were done in triplicate.
MTT assays were used to determine the effect of Bouvardin (concentrations in uM) in combination with ionizing radiation (in Gy, X-axis). FIG. 14 depicts CI values for Bouvardin and radiation on 3 cell lines. Combination Index data from 3 different Head and Neck Cancer cell lines are shown. Black dashed lines represent a CI value of 1. CI values below 1 indicate synergy. 1586 and UM-SCC19 were pre-treated whereas HN31 was treated on the same day.

For `COc1ccc(C[C@H]2C(=O)N[C@H](C)C(=O)N(C)[C@@H]3C(=O)N(C)[C@@H](Cc4ccc(O)c(c4)Oc4ccc(cc4)[C@H]3O)C(=O)N[C@@H](C)C(=O)N[C@H](C)C(=O)N2C)cc1` (stereo in doubt) [Bouvardin, bouvardin], the “Combination Index” value (Bouvardin 0.001 uM + 1 Gy IR) was 4.673, the “Fraction Affected” value (Bouvardin 0.001 uM + 1 Gy IR) was 0.165 and the “Combination Index” value (Bouvardin 0.001 uM + 2 Gy IR) was 1.605. For the same compound, the “Fraction Affected” value (Bouvardin 0.001 uM + 2 Gy IR) was 0.292, the “Combination Index” value (Bouvardin 0.001 uM + 4 Gy IR) was 0.989 and the “Fraction Affected” value (Bouvardin 0.001 uM + 4 Gy IR) was 0.478. For the same compound, the “Combination Index” value (Bouvardin 0.003 uM + 1 Gy IR) was 1.405, the “Fraction Affected” value (Bouvardin 0.003 uM + 1 Gy IR) was 0.362 and the “Combination Index” value (Bouvardin 0.003 uM + 2 Gy IR) was 0.877. For the same compound, the “Fraction Affected” value (Bouvardin 0.003 uM + 2 Gy IR) was 0.463, the “Combination Index” value (Bouvardin 0.003 uM + 4 Gy IR) was 0.93 and the “Fraction Affected” value (Bouvardin 0.003 uM + 4 Gy IR) was 0.535. For the same compound, the “Combination Index” value (Bouvardin 0.006 uM + 1 Gy IR) was 0.462, the “Fraction Affected” value (Bouvardin 0.006 uM + 1 Gy IR) was 0.574 and the “Combination Index” value (Bouvardin 0.006 uM + 2 Gy IR) was 0.517. The “Fraction Affected” value (Bouvardin 0.006 uM + 2 Gy IR) was 0.602, the “Combination Index” value (Bouvardin 0.006 uM + 4 Gy IR) was 1.005 and the “Fraction Affected” value (Bouvardin 0.006 uM + 4 Gy IR) was 0.559. The “Combination Index” value (Bouvardin 0.01 uM + 1 Gy IR) was 0.401, the “Fraction Affected” value (Bouvardin 0.01 uM + 1 Gy IR) was 0.731 and the “Combination Index” value (Bouvardin 0.01 uM + 2 Gy IR) was 0.419. The “Fraction Affected” value (Bouvardin 0.01 uM + 2 Gy IR) was 0.747, the “Combination Index” value (Bouvardin 0.01 uM + 4 Gy IR) was 0.657 and the “Fraction Affected” value (Bouvardin 0.01 uM + 4 Gy IR) was 0.73. The “Combination Index” value (Bouvardin 0.03 uM + 1 Gy IR) was 0.565, the “Fraction Affected” value (Bouvardin 0.03 uM + 1 Gy IR) was 0.753 and the “Combination Index” value (Bouvardin 0.03 uM + 2 Gy IR) was 0.471. For the same compound, the “Fraction Affected” value (Bouvardin 0.03 uM + 2 Gy IR) was 0.782, the “Combination Index” value (Bouvardin 0.03 uM + 4 Gy IR) was 1.099 and the “Fraction Affected” value (Bouvardin 0.03 uM + 4 Gy IR) was 0.717. The “Combination Index” value (Bouvardin 0.06 uM + 1 Gy IR) was 0.663, the “Fraction Affected” value (Bouvardin 0.06 uM + 1 Gy IR) was 0.778 and the “Combination Index” value (Bouvardin 0.06 uM + 2 Gy IR) was 0.673. For the same compound, the “Fraction Affected” value (Bouvardin 0.06 uM + 2 Gy IR) was 0.785, the “Combination Index” value (Bouvardin 0.06 uM + 4 Gy IR) was 1.086 and the “Fraction Affected” value (Bouvardin 0.06 uM + 4 Gy IR) was 0.756. For the same compound, the “Combination Index” value (Bouvardin 0.1 uM + 1 Gy IR) was 0.97, the “Fraction Affected” value (Bouvardin 0.1 uM + 1 Gy IR) was 0.825 and the “Combination Index” value (Bouvardin 0.1 uM + 2 Gy IR) was 1.673. The “Fraction Affected” value (Bouvardin 0.1 uM + 2 Gy IR) was 0.789, the “Combination Index” value (Bouvardin 0.1 uM + 4 Gy IR) was 1.914 and the “Fraction Affected” value (Bouvardin 0.1 uM + 4 Gy IR) was 0.784. For the same compound, the “Combination Index” value (Bouvardin 0.3 uM + 1 Gy IR) was 1.563, the “Fraction Affected” value (Bouvardin 0.3 uM + 1 Gy IR) was 0.837 and the “Combination Index” value (Bouvardin 0.3 uM + 2 Gy IR) was 1.911. For the same compound, the “Fraction Affected” value (Bouvardin 0.3 uM + 2 Gy IR) was 0.826, the “Combination Index” value (Bouvardin 0.3 uM + 4 Gy IR) was 2.897 and the “Fraction Affected” value (Bouvardin 0.3 uM + 4 Gy IR) was 0.8. The “Combination Index” value (Bouvardin 0.6 uM + 1 Gy IR) was 2.067, the “Fraction Affected” value (Bouvardin 0.6 uM + 1 Gy IR) was 0.85 and the “Combination Index” value (Bouvardin 0.6 uM + 2 Gy IR) was 2.148. The “Fraction Affected” value (Bouvardin 0.6 uM + 2 Gy IR) was 0.849, the “Combination Index” value (Bouvardin 0.6 uM + 4 Gy IR) was 4.862 and the “Fraction Affected” value (Bouvardin 0.6 uM + 4 Gy IR) was 0.797. The “Combination Index” value (Bouvardin 1 uM + 1 Gy IR) was 4.673, the “Fraction Affected” value (Bouvardin 1 uM + 1 Gy IR) was 0.165 and the “Combination Index” value (Bouvardin 1 uM + 2 Gy IR) was 1.605. The “Fraction Affected” value (Bouvardin 1 uM + 2 Gy IR) was 0.292, the “Combination Index” value (Bouvardin 1 uM + 4 Gy IR) was 0.989 and the “Fraction Affected” value (Bouvardin 1 uM + 4 Gy IR) was 0.478.
